Laboratory results published in US20080058349A1, “New Compounds 318” (Astrazeneca AB, priority 2006, published 2008).
Counter-ions that a name gives are not always drawn.

Target: T1, human β-Secretase (Homo sapiens, UniProt P56817)
T1 construct: The soluble part of the human β-Secretase (AA 1-AA 460) was cloned; made in house
Test: TR-FRET assay;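 note: sBACE-Fc from HEK 293 cells, compound preincubated 10 min, then 15 min substrate reaction at RT in darkness, 5% DMSO, DMSO control as 100% and enzyme-free wells as 0%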
Assay type: biochemical
Conditions: soluble human β-Secretase (sBACE-Fc), pH 4.5

[1] = substrate (Europium)[…](Qsy7) 100 nM

T1 sequence (P56817 22-460): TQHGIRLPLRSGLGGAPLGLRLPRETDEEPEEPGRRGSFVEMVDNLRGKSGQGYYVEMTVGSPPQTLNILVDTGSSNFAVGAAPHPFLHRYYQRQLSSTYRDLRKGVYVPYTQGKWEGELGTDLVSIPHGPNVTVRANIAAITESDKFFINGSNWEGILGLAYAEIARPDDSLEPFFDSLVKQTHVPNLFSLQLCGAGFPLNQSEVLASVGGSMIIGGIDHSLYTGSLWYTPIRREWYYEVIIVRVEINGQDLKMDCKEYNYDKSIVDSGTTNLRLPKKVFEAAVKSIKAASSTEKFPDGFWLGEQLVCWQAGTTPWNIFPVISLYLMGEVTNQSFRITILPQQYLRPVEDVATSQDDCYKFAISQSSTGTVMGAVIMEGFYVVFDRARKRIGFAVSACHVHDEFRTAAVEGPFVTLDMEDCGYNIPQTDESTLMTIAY

Row | IC50 [1] [nM] | IC50 (substrate (Europium)CEVNLDAEFK(Qsy7) 100 nM) [nM] | Compound
1 | 113 | – | NC1=NC(c2ccc(OS(=O)(=O)C(F)(F)F)cc2)(c2cccc(-c3cccc(Cl)c3)c2)C2=NCCCN12 (stereo not shown) [Example 99, 4-[6-Amino-8-(3′-chlorobiphenyl-3-yl)-2,3,4,8-tetrahydroimidazo[1,5-a]pyrimidin-8-yl]phenyl trifluoromethanesulfonate acetate]
2 | 41 | – | COc1ccc(C2(c3cccc(-c4cc(Cl)cc(Cl)c4)c3)N=C(N)N3CC(OC)CN=C32)cc1 (mixture of isomers) [Example 126, 8-(3′,5′-Dichlorobiphenyl-3-yl)-3-methoxy-8-(4-methoxyphenyl)-2,3,4,8-tetrahydroimidazo[1,5-a]pyrimidin-6-amine]
3 | 305 | – | COc1ccc(F)c(-c2cccc(C3(c4ccccc4)N=C(N)N4CCCN=C43)c2)c1 (stereo not shown) [Example 100, 8-(2′-Fluoro-5′-methoxybiphenyl-3-yl)-8-phenyl-2,3,4,8-tetrahydroimidazo[1,5-a]pyrimidin-6-amine hydrochloride]
4 | 34 | – | COc1ccc(C2(c3cccc(-c4cc(Cl)cc(Cl)c4)c3)N=C(N)N3CC(C(=O)O)CN=C32)cc1 (mixture of isomers) [Example 128, 6-Amino-8-(3′,5′-dichlorobiphenyl-3-yl)-8-(4-methoxyphenyl)-2,3,4,8-tetrahydroimidazo[1,5-a]pyrimidine-3-carboxylic acid]
5 | 510 | – | COc1cccc(-c2cccc(C3(c4ccccc4)N=C(N)N4CCCN=C43)c2)c1 (stereo not shown) [Example 30, 8-(3′-Methoxybiphenyl-3-yl)-8-phenyl-2,3,4,8-tetrahydroimidazo[1,5-a]pyrimidin-6-amine hydrochloride]
6 | 21 | – | COc1ccc(C2(c3cccc(-c4cc(Cl)cc(Cl)c4)c3)N=C(N)N3CC(NC(C)=O)CN=C32)cc1 (mixture of isomers) [Example 129, N-[6-amino-8-(3′,5′-dichlorobiphenyl-3-yl)-8-(4-methoxyphenyl)-2,3,4,8-tetrahydroimidazo[1,5-a]pyrimidin-3-yl]acetamide]
7 | 69 | – | CCCS(=O)(=O)Oc1cccc(C2(c3cccc(-c4cc(Cl)cc(Cl)c4)c3)N=C(N)N3CCCN=C32)c1 (stereo not shown) [Example 184, 3-[6-Amino-8-(3′,5′-dichlorobiphenyl-3-yl)-2,3,4,8-tetrahydroimidazo[1,5-a]pyrimidin-8-yl]phenyl propane-1-sulfonate]
8 | 22 | – | COc1ccc(C2(c3cccc(-c4cc(Cl)cc(Cl)c4)c3)N=C(N)N3CC(O)CN=C32)cc1 (mixture of isomers) [Example 125, 6-Amino-8-(3′,5′-dichlorobiphenyl-3-yl)-8-(4-methoxyphenyl)-2,3,4,8-tetrahydroimidazo[1,5-a]pyrimidin-3-ol]
9 | 1200 | – | CS(=O)(=O)Oc1cccc(C2(c3cccc(-c4cc(C(F)(F)F)cc(C(F)(F)F)c4)c3)N=C(N)N3CCCN=C32)c1 (stereo not shown) [Example 176, 3-[6-Amino-8-[3′,5′-bis(trifluoromethyl)biphenyl-3-yl]-2,3,4,8-tetrahydroimidazo[1,5-a]pyrimidin-8-yl]phenyl methanesulfonate]
10 | 51 | – | NC1=NC(c2cccc(OS(=O)(=O)C3CC3)c2)(c2cccc(-c3cc(Cl)cc(Cl)c3)c2)C2=NCCCN12 (stereo not shown) [Example 186, 3-[6-Amino-8-(3′,5′-dichlorobiphenyl-3-yl)-2,3,4,8-tetrahydroimidazo[1,5-a]pyrimidin-8-yl]phenyl cyclopropanesulfonate]
11 | 378 | – | NC1=NC(c2ccccc2)(c2cccc(-c3cc(Cl)ccc3F)c2)C2=NCCCN12 (stereo not shown) [Example 101, 8-(5′-Chloro-2′-fluorobiphenyl-3-yl)-8-phenyl-2,3,4,8-tetrahydroimidazo[1,5-a]pyrimidin-6-amine hydrochloride]
12 | 106 | – | CCCS(=O)(=O)Oc1cccc(C2(c3cccc(-c4cccc(OC)c4)c3)N=C(N)N3CCCN=C32)c1 (stereo not shown) [Example 185, 3-[6-Amino-8-(3′-methoxybiphenyl-3-yl)-2,3,4,8-tetrahydroimidazo[1,5-a]pyrimidin-8-yl]phenyl propane-1-sulfonate]
13 | 32 | – | COc1ccc(C2(c3cccc(-c4cc(Cl)cc(Cl)c4)c3)N=C(N)N3CC(F)(F)CN=C32)cc1 (stereo not shown) [Example 132, 8-(3′,5′-Dichlorobiphenyl-3-yl)-3,3-difluoro-8-(4-methoxyphenyl)-2,3,4,8-tetrahydroimidazo[1,5-a]pyrimidin-6-amine 0.75 acetate]
14 | 285 | – | CS(=O)(=O)Oc1cccc(C2(c3cccc(-c4cccc(Cl)c4)c3)N=C(N)N3CCCN=C32)c1 (stereo not shown) [Example 182, 3-[6-Amino-8-(3′-chlorobiphenyl-3-yl)-2,3,4,8-tetrahydroimidazo[1,5-a]pyrimidin-8-yl]phenyl methanesulfonate]
15 | 39 | – | COc1ccc(C2(c3cccc(-c4cc(Cl)cc(Cl)c4)c3)N=C(N)N3CC(S(C)(=O)=O)CN=C32)cc1 (stereo not shown) [Example 124, 8-(3′,5′-Dichlorobiphenyl-3-yl)-8-(4-methoxyphenyl)-3-(methylsulfonyl)-2,3,4,8-tetrahydroimidazo[1,5-a]pyrimidin-6-amine 2.0 acetate]
16 | 27 | – | COc1ccc(C2(c3cccc(-c4cc(Cl)cc(Cl)c4)c3)N=C(N)N3CC(C#N)CN=C32)cc1 (mixture of isomers) [Example 127, 6-Amino-8-(3′,5′-dichlorobiphenyl-3-yl)-8-(4-methoxyphenyl)-2,3,4,8-tetrahydroimidazo[1,5-a]pyrimidine-3-carbonitrile]
17 | – | 146 | 4-[5-Amino-7-(3′,5′-dichlorobiphenyl-3-yl)-2,7-dihydro-3H-imidazo[1,5-a]imidazol-7-yl]phenyl methanesulfonate 0.25 acetate [Example 61]
18 | 255 | – | NC1=NC(c2ccccc2)(c2cccc(-c3cccc(Cl)c3)c2)C2=NCCCN12 (stereo not shown) [Example 31, 8-(3′-Chlorobiphenyl-3-yl)-8-phenyl-2,3,4,8-tetrahydroimidazo[1,5-a]pyrimidin-6-amine hydrochloride]
19 | 159 | – | COc1ccc(C2(c3cccc(-c4cc(Cl)cc(Cl)c4)c3)N=C(N)N3C2=NCC[C@H]3C(=O)O)cc1 (mixture of isomers) [Example 131, (4S)-6-amino-8-(3′,5′-dichlorobiphenyl-3-yl)-8-(4-methoxyphenyl)-2,3,4,8-tetrahydroimidazo[1,5-a]pyrimidine-4-carboxylic acid]
20 | 17 | – | COc1ccc(C2(c3cccc(-c4cc(Cl)cc(Cl)c4)c3)N=C(N)N3CC(NS(C)(=O)=O)CN=C32)cc1 (mixture of isomers) [Example 130, N-[6-Amino-8-(3′,5′-dichlorobiphenyl-3-yl)-8-(4-methoxyphenyl)-2,3,4,8-tetrahydroimidazo[1,5-a]pyrimidin-3-yl]methanesulfonamide]
21 | 149 | – | NC1=NC(c2ccccc2)(c2cccc(-c3cc(Cl)cc(Cl)c3)c2)C2=NCCCN12 (stereo not shown) [Example 102, 8-(3′,5′-Dichlorobiphenyl-3-yl)-8-phenyl-2,3,4,8-tetrahydroimidazo[1,5-a]pyrimidin-6-amine hydrochloride]
22 | 92 | – | COc1cccc(C2(c3cccc(-c4cc(Cl)cc(Cl)c4)c3)N=C(N)N3CCCN=C32)c1 (stereo not shown) [Example 178, 8-(3′,5′-Dichlorobiphenyl-3-yl)-8-(3-methoxyphenyl)-2,3,4,8-tetrahydroimidazo[1,5-a]pyrimidin-6-amine]
23 | 227 | – | NC1=NC(c2ccc(OS(=O)(=O)C(F)(F)F)cc2)(c2cccc(-c3cccc(Cl)c3)c2)C2=NCCN12 (stereo not shown) [Example 96, 4-[5-Amino-7-(3′-chlorobiphenyl-3-yl)-2,7-dihydro-3H-imidazo[1,5-a]imidazol-7-yl]phenyl trifluoromethanesulfonate 0.75 acetate]
24 | 727 | – | COc1cc(OS(C)(=O)=O)cc(-c2cccc(C3(c4ccccc4)N=C(N)N4CCCN=C43)c2)c1 (stereo not shown) [Example 103, 3′-(6-Amino-8-phenyl-2,3,4,8-tetrahydroimidazo[1,5-a]pyrimidin-8-yl)-5-methoxybiphenyl-3-yl methanesulfonate hydrochloride]
25 | 106 | – | CS(=O)(=O)Oc1cccc(C2(c3cccc(-c4cc(Cl)cc(Cl)c4)c3)N=C(N)N3CCCN=C32)c1 (stereo not shown) [Example 181, 3-[6-Amino-8-(3′,5′-dichlorobiphenyl-3-yl)-2,3,4,8-tetrahydroimidazo[1,5-a]pyrimidin-8-yl]phenyl methanesulfonate]
26 | 252 | – | COc1cccc(-c2cccc(C3(c4cccc(OS(C)(=O)=O)c4)N=C(N)N4CCCN=C43)c2)c1 (stereo not shown) [Example 183, 3-[6-Amino-8-(3′-methoxybiphenyl-3-yl)-2,3,4,8-tetrahydroimidazo[1,5-a]pyrimidin-8-yl]phenyl methanesulfonate]
27 | 34 | – | COc1ccc(C2(c3cccc(-c4cc(Cl)cc(Cl)c4)c3)N=C(N)N3CC(F)CN=C32)cc1 (stereo not shown) [Example 136, 8-(3′,5′-Dichlorobiphenyl-3-yl)-3-fluoro-8-(4-methoxyphenyl)-2,3,4,8-tetrahydroimidazo[1,5-a]pyrimidin-6-amine 1.5 acetate]
28 | 246 | – | NC1=NC(c2cccc(OS(=O)(=O)C(F)(F)F)c2)(c2cccc(-c3cccc(Cl)c3)c2)C2=NCCCN12 (stereo not shown) [Example 177, 3-[6-Amino-8-(3′-chlorobiphenyl-3-yl)-2,3,4,8-tetrahydroimidazo[1,5-a]pyrimidin-8-yl]phenyl trifluoromethanesulfonate]
